# In patent publication EP0414533A1, “Use of iodopropargyl esters of alpha-amino acid derivatives as antimicrobial agents” (ROHM AND HAAS COMPANY, priority 1989, dated 1991):
# What was measured:
# [1] = tested on: Phytophthora capsici (PHY); experiment: In-vitro plant fungicide test; type: cell-based; conditions: Phytophthora capsici; 25 ppm; Table IVa; read-out: % Control at 25 ppm PHY
# [2] = tested on: 7 FUNGI; experiment: Microbicides broad spectrum secondary test against 7 fungi (Table V); type: cell-based; parameters: key: 1= no growth; 0= growth of the indicated fungi at dose indicated in ppm; conditions: Mycophile agar, pH 5.0; for ANIG growth: Aspergillus niger; for APUL growth: Aureobasidium pullulans; for CRES growth: Cladosporium resinae; for GTRA growth: Gloeophyllum trabeum; for PFUN growth: Penicillium funiculosum; for RRUB growth: Rhodotorula rubra; for SSER growth: Sacharomyces cerevisiae
# Description: In the case of fungi, the spores are harvested by pipetting water onto the slant and dislodging the spores with a sterile loop. The cell/spore suspension is standardized by controlling incubation time, temperature, and the volume of the diluent. The suspension is then used to inoculate the vessels containing the broth compound. […] The results of the minimum inhibitory concentration (MIC) tests of compounds of this invention are shown in Tables IIIa IIIb, IIIc, V, VI, VII, and VIII against the microorganisms shown in Table IX. [table]
# [3] = tested on: Rhizoctonia solani (RHI); experiment: In-vitro plant fungicide test; type: cell-based; conditions: Rhizoctonia solani; 25 ppm; Table IVa; read-out: % Control at 25 ppm RHI
# [4] = tested on: Fusarium roseum (FUS); experiment: In-vitro plant fungicide test; type: cell-based; conditions: Fusarium sambucinum, read-out: % Control at 25 ppm FUS, 25 ppm; Table IVa; *=Phytotoxic
# [5] = tested on: Cochliobolus sativus (HEL); experiment: In-vitro plant fungicide test; type: cell-based; conditions: Bipolaris sorokiniana, 25 ppm; Table IVa; *=Phytotoxic; read-out: % Control at 25 ppm HEL
# [6] = tested on: Pseudomonas aerugenosa (PSAE); experiment: Minimum inhibitory concentration (MIC), broth two-fold serial dilution test; conditions: Pseudomonas, IIIB, read-out: MIC (G-) PSAE, trypticase soy broth (complex media); Table IIIb
# [7] = tested on: Pseudomonas fluorescens (PSFL); experiment: as above; conditions: Pseudomonas fluorescens, IIIB, read-out: MIC (G-) PSFL, trypticase soy broth (complex media); Table IIIb
smiles,measurement,setting,value
"O=C(CNC(=O)c1ccccc1)OCC#CI [Compound 29, N-benzoylglycine iodopropargyl ester]",inhibition of growth at 25 ppm,[1],100%
same,ANIG growth,[2]; 0.2 PPM,0
same,ANIG growth,[2]; 1 PPM,0
same,ANIG growth,[2]; 5 PPM,1
same,ANIG growth,[2]; 25 PPM,1
same,APUL growth,[2]; 0.2 PPM,0
same,APUL growth,[2]; 1 PPM,0
same,APUL growth,[2]; 5 PPM,1
same,APUL growth,[2]; 25 PPM,1
same,CRES growth,[2]; 0.2 PPM,0
same,CRES growth,[2]; 1 PPM,0
same,CRES growth,[2]; 5 PPM,1
same,CRES growth,[2]; 25 PPM,1
same,GTRA growth,[2]; 0.2 PPM,1
same,GTRA growth,[2]; 1 PPM,1
same,GTRA growth,[2]; 5 PPM,1
same,GTRA growth,[2]; 25 PPM,1
same,PFUN growth,[2]; 0.2 PPM,0
same,PFUN growth,[2]; 1 PPM,0
same,PFUN growth,[2]; 5 PPM,1
same,PFUN growth,[2]; 25 PPM,1
same,RRUB growth,[2]; 0.2 PPM,0
same,RRUB growth,[2]; 1 PPM,0
same,RRUB growth,[2]; 5 PPM,1
same,RRUB growth,[2]; 25 PPM,1
same,SSER growth,[2]; 0.2 PPM,0
same,SSER growth,[2]; 1 PPM,0
same,SSER growth,[2]; 5 PPM,1
same,SSER growth,[2]; 25 PPM,1
same,inhibition of growth at 25 ppm,[3],100%
same,inhibition of growth at 25 ppm,[4],100%
same,inhibition of growth at 25 ppm,[5],100%
same,MIC,[6],125 µg/mL
same,MIC,[7],32 µg/mL
